This assay has as its target T1, Human pyruvate kinase R (PKR) (Homo sapiens, UniProt P30613).
T1 construct: Human pyruvate kinase R (PKR), residues 14-574; 6x-His (N, cleaved yes); 8x-Arg (N, cleaved yes); SUMO (N, cleaved yes); host or cells: E. coli
Description: Biochemical assay for activation of pyruvate kinase R (Kinase-Glo luminescence measurement of ATP generation). As to conditions: for AC50: PKR biochemical assay, 0.1 nM PKR, 0.3 mM ADP, 2 mM FBP, 0.1 mM PEP; for Emax: maximal activation level relative to the activation level achieved by the literature compound AG-348 @ 10 μM. The gist of the method: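 Recombinant human PKR (residues 14-574), E. coli-expressed with His-Arg-SUMO tag removed, purified by Ni-NTA, anion exchange and size exclusion. Activation measured as ATP generation via Kinase-Glo luminescence.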
For orientation: In Kinase-Glo more light means more ATP remaining.

We go through 27 compounds from patent US20230278984A1 (Global Blood Therapeutics, Inc., priority 2020, published 2023).

T1 sequence (P30613 14-574): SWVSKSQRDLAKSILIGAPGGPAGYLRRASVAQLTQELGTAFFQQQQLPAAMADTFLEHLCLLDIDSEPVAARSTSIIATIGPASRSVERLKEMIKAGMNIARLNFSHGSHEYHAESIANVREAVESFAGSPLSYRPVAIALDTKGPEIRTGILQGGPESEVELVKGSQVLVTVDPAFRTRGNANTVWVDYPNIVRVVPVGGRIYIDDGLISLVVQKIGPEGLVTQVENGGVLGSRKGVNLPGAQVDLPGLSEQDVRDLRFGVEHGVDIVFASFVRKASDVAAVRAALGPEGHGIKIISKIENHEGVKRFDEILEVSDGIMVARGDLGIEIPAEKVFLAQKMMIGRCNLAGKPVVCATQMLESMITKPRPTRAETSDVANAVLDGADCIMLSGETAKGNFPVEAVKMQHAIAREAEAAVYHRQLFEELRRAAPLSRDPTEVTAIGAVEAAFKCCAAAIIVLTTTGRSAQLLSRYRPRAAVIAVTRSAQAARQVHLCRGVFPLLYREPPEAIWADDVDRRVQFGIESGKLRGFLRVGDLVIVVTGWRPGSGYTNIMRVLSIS

As to `Cc1cncc(-n2ncnc2CNC(=O)NCc2nc(C)nn2-c2ccc(Cl)c(F)c2)c1` [Compound 137, 1-{[1-(4-chloro-3-fluorophenyl)-3-methyl-1H-1,2,4-triazol-5-yl]methyl}-3-{[1-(5-methylpyridin-3-yl)-1H-1,2,4-triazol-5-yl]methyl}urea], half-maximal activity (AC50) was put at 180 nM and the Emax was found to be 99%.

In the case of `O=C(NCc1nnnn1-c1ccc(Cl)cc1F)NCc1nnnn1-c1ccc(Cl)cc1F` [Compound 25, 1,3-bis({[1-(4-chloro-2-fluorophenyl)-1H-1,2,3,4-tetrazol-5-yl]methyl})urea], half-maximal activity (AC50) was put at 2500 nM and the Emax turned out to be 80%.

For `Cc1nc(CNC(=O)NCc2nc(CCO)nn2-c2ccc(Cl)c(F)c2)n(-c2ccc3cccnc3c2)n1` [Compound 94, 1-{[1-(4-chloro-3-fluorophenyl)-3-(2-hydroxyethyl)-1H-1,2,4-triazol-5-yl]methyl}-3-{[3-methyl-1-(quinolin-7-yl)-1H-1,2,4-triazol-5-yl]methyl}urea], the half-maximal activity concentration (AC50) stood at 730 nM and the Emax came to 87%.

With `Cc1ccc(-n2ncnc2CNC(=O)NCc2ncnn2-c2ccc(C)c(F)c2)cc1F` [Compound 67, 1,3-bis({[1-(3-fluoro-4-methylphenyl)-1H-1,2,4-triazol-5-yl]methyl})urea], the activity was half-maximal at 44 nM (AC50) and the Emax amounted to 58%.

`CCN(Cc1ncnn1-c1ccc(Cl)c(F)c1)C(=O)NCc1ncnn1-c1ccc(OC)nc1` [Compound 120, 3-{[1-(4-chloro-3-fluorophenyl)-1H-1,2,4-triazol-5-yl]methyl}-3-ethyl-1-{[1-(6-methoxypyridin-3-yl)-1H-1,2,4-triazol-5-yl]methyl}urea] yielded an AC50 of 220 nM and an Emax of 51%.

`Cc1nc(CNC(=O)NCc2nnnn2-c2ccc(Cl)c(F)c2)n(-c2ccc3cccnc3c2)n1` [Compound 86, 1-{[1-(4-chloro-3-fluorophenyl)-1H-1,2,3,4-tetrazol-5-yl]methyl}-3-{[3-methyl-1-(quinolin-7-yl)-1H-1,2,4-triazol-5-yl]methyl}urea] yielded an AC50 of 66 nM and a maximal response (Emax) of 90%.

With `COC(=O)c1cc(-n2ncnc2CNC(=O)NCc2nc(C)nn2-c2ccc(Cl)c(F)c2)ccc1Cl` [Compound 50, methyl 2-chloro-5-(5-{[({[1-(4-chloro-3-fluorophenyl)-3-methyl-1H-1,2,4-triazol-5-yl]methyl}carbamoyl)amino]methyl}-1H-1,2,4-triazol-1-yl)benzoate], the AC50 came to 32 nM and the Emax was found to be 64%.

As to `Cc1cc(-n2nnnc2CNC(=O)NCc2nnnn2-c2ccc(Cl)c(C)c2)ccc1Cl` [Compound 59, 1,3-bis({[1-(4-chloro-3-methylphenyl)-1H-1,2,3,4-tetrazol-5-yl]methyl})urea], the AC50 was 1200 nM and the Emax was found to be 86%.

Consider `Cc1nc(CNC(=O)N(C)Cc2ncnn2-c2ccc3scnc3c2)n(-c2ccc(Cl)c(F)c2)n1` [Compound 22, 1-{[1-(1,3-benzothiazol-5-yl)-1H-1,2,4-triazol-5-yl]methyl}-3-{[1-(4-chloro-3-fluorophenyl)-3-methyl-1H-1,2,4-triazol-5-yl]methyl}-1-methylurea], for which the AC50 turned out to be 33 nM and the Emax was 83%.

`Cc1nc(CNC(=O)NCc2ncnn2-c2cc(F)c3cncnc3c2)n(-c2ccc(Cl)c(F)c2)n1` [Compound 108, 1-{[1-(4-chloro-3-fluorophenyl)-3-methyl-1H-1,2,4-triazol-5-yl]methyl}-3-{[1-(5-fluoroquinazolin-7-yl)-1H-1,2,4-triazol-5-yl]methyl}urea] registered an AC50 of 900 nM and an Emax of 74%.

For the compound `O=C(NCc1ncnn1-c1ccc(F)c(Cl)c1)NCc1ncnn1-c1ccc(F)c(Cl)c1` [Compound 64, 1,3-bis({[1-(3-chloro-4-fluorophenyl)-1H-1,2,4-triazol-5-yl]methyl})urea], the activity was half-maximal at 120 nM (AC50) and the Emax was 46%.

Regarding `CC1(Cn2ncnc2CNC(=O)NCc2ncnn2-c2ccc(Cl)c(F)c2)CCOCC1` [Compound 11, 3-{[1-(4-chloro-3-fluorophenyl)-1H-1,2,4-triazol-5-yl]methyl}-1-({1-[(4-methyloxan-4-yl)methyl]-1H-1,2,4-triazol-5-yl}methyl)urea], the AC50 was 88 nM and the Emax was found to be 49%.

Turning to `O=C(NCc1nnnn1-c1ccc(F)c(Cl)c1)NCc1nnnn1-c1ccc(F)c(Cl)c1` [Compound 70, 1,3-bis({[1-(3-chloro-4-fluorophenyl)-1H-1,2,3,4-tetrazol-5-yl]methyl})urea], the activity was half-maximal at 110 nM (AC50) and the Emax worked out at 64%.

`COc1ccc(-n2ncnc2CNC(=O)NCc2ncnn2-c2ccc(Cl)c(F)c2)cn1` [Compound 118, 3-{[1-(4-chloro-3-fluorophenyl)-1H-1,2,4-triazol-5-yl]methyl}-1-{[1-(6-methoxypyridin-3-yl)-1H-1,2,4-triazol-5-yl]methyl}urea]: the AC50 came to 47 nM and the Emax was 36%.

The compound `CNCc1cc(-n2nc(C)nc2CNC(=O)NCc2nc(C)nn2-c2ccc(Cl)c(F)c2)ccc1Cl` [Compound 99, 1-[(1-{4-chloro-3-[(methylamino)methyl]phenyl}-3-methyl-1H-1,2,4-triazol-5-yl)methyl]-3-{[1-(4-chloro-3-fluorophenyl)-3-methyl-1H-1,2,4-triazol-5-yl]methyl}urea] displayed a concentration at half-maximal activity (AC50) of 69 nM and an Emax of 69%.

As to `Cc1nc(CNC(=O)NCC2=NC3(CC3)C(=O)N2c2ccc3cccnc3c2)n(-c2ccc(Cl)c(F)c2)n1` [Compound 111, 1-{[1-(4-chloro-3-fluorophenyl)-3-methyl-1H-1,2,4-triazol-5-yl]methyl}-3-{[7-oxo-6-(quinolin-7-yl)-4,6-diazaspiro[2.4]hept-4-en-5-yl]methyl}urea], half-maximal activity (AC50) was put at 140 nM and the Emax is 105%.

`O=C(NCc1ncnn1-c1ccc(Cl)c(F)c1)N(CCO)Cc1nnnn1-c1ccc(Cl)c(F)c1` [Compound 34, 1-{[1-(4-chloro-3-fluorophenyl)-1H-1,2,3,4-tetrazol-5-yl]methyl}-3-{[1-(4-chloro-3-fluorophenyl)-1H-1,2,4-triazol-5-yl]methyl}-1-(2-hydroxyethyl)urea] had a concentration at half-maximal activity (AC50) of 830 nM and an Emax of 89%.

In the case of `O=C(NCC1=NC2(CC2)C(=O)N1Cc1ccc(F)cc1)NCc1ncnn1-c1ccc2cccnc2c1` [Compound 110, 3-({6-[(4-fluorophenyl)methyl]-7-oxo-4,6-diazaspiro[2.4]hept-4-en-5-yl}methyl)-1-{[1-(quinolin-7-yl)-1H-1,2,4-triazol-5-yl]methyl}urea], the AC50 was found to be 61 nM and the Emax came out at 83%.

Take `Cc1nc(CNC(=O)NCc2ncnn2-c2ccc3cnccc3c2)n(-c2ccc(Cl)c(F)c2)n1` [Compound 82, 1-{[1-(4-chloro-3-fluorophenyl)-3-methyl-1H-1,2,4-triazol-5-yl]methyl}-3-{[1-(isoquinolin-6-yl)-1H-1,2,4-triazol-5-yl]methyl}urea]: the AC50 amounted to 270 nM and the Emax worked out at 85%.

In the case of `Cc1ccc(-n2nnnc2CNC(=O)NCc2nnnn2-c2ccc(C)c(F)c2)cc1F` [Compound 58, 1,3-bis({[1-(3-fluoro-4-methylphenyl)-1H-1,2,3,4-tetrazol-5-yl]methyl})urea], the activity was half-maximal at 220 nM (AC50) and the Emax turned out to be 88%.

The compound `Cc1cc(-n2nnnc2CNC(=O)NCc2nnnn2-c2ccc(F)c(C)c2)ccc1F` [Compound 62, 1,3-bis({[1-(4-fluoro-3-methylphenyl)-1H-1,2,3,4-tetrazol-5-yl]methyl})urea] showed an AC50 of 210 nM and an Emax of 66%.

In turn, `Cc1ccc(-n2ncnc2CNC(=O)NCc2ncnn2-c2ccc(C)c(C)c2)cc1C` [Compound 57, 1,3-bis({[1-(3,4-dimethylphenyl)-1H-1,2,4-triazol-5-yl]methyl})urea] displayed an AC50 of 64 nM and a maximum response (Emax) of 87%.

The compound `Cc1nc(CNC(=O)NCc2ncnn2-c2ccc3ccncc3c2)n(-c2ccc(Cl)c(F)c2)n1` [Compound 39, 3-{[1-(4-chloro-3-fluorophenyl)-3-methyl-1H-1,2,4-triazol-5-yl]methyl}-1-{[1-(isoquinolin-7-yl)-1H-1,2,4-triazol-5-yl]methyl}urea] had a concentration at half-maximal activity (AC50) of 51 nM and an Emax of 63%.

`COc1ccc(-n2nnnc2CNC(=O)NCc2nnnn2-c2ccc(OC)cc2)cc1` [Compound 69, 1,3-bis({[1-(4-methoxyphenyl)-1H-1,2,3,4-tetrazol-5-yl]methyl})urea] gave an AC50 of 540 nM and an Emax of 92%.

As for `O=C(NCc1ncnn1-c1ccc2cccnc2c1)NCc1nc(C2CC2)nn1-c1ccc(Cl)c(F)c1` [Compound 83, 1-{[1-(4-chloro-3-fluorophenyl)-3-cyclopropyl-1H-1,2,4-triazol-5-yl]methyl}-3-{[1-(quinolin-7-yl)-1H-1,2,4-triazol-5-yl]methyl}urea], the AC50 stood at 72 nM and the Emax is 83%.

With `CCc1nc(CNC(=O)NCc2ncnn2-c2ccc(Cl)c(F)c2)n(-c2ccc3cccnc3c2)n1` [Compound 92, 1-{[1-(4-chloro-3-fluorophenyl)-1H-1,2,4-triazol-5-yl]methyl}-3-{[3-ethyl-1-(quinolin-7-yl)-1H-1,2,4-triazol-5-yl]methyl}urea], the AC50 came out at 52 nM and the Emax stood at 72%.

`Cn1ncc2cc(-n3ncnc3CNC(=O)NCc3ncnn3-c3ccc(Cl)c(F)c3)ccc21` [Compound 52, 1-{[1-(4-chloro-3-fluorophenyl)-1H-1,2,4-triazol-5-yl]methyl}-3-{[1-(1-methyl-1H-indazol-5-yl)-1H-1,2,4-triazol-5-yl]methyl}urea] returned an AC50 of 24 nM and an Emax of 37%.

The AC50 is the concentration giving half of the maximal activity seen. A high value points to weaker potency. Usually Emax stands for the greatest response seen or fitted, relative to the assay's reference.
